Data taken from patent publication US20150231236A1, “METHODS FOR TREATING PATIENTS WITH HYPERCHOLESTEROLEMIA THAT IS NOT ADEQUATELY CONTROLLED BY MODERATE-DOSE STATIN THERAPY” (Regeneron Pharmaceuticals, Inc., priority 2014, published 2015).

System: patients with hypercholesterolemia at high CV risk not adequately controlled with atorvastatin (20 mg or 40 mg)
Assay: Example 2: randomized, double-blind trial, lipid efficacy of mAb316P add-on to atorvastatin vs EZE add-on, atorvastatin dose doubling or switch to rosuvastatin
Type: in vivo, human
Conditions: for reduced LDL-C levels by: week 24, add-on mAb316P
Procedure, shortened: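 Patients on atorvastatin 20 or 40 mg randomized to mAb316P 75 mg SC Q2W (raised to 150 mg from week 12 per CV risk) or blinded comparators, over 24 weeks. Endpoint: percent change in calculated LDL-C (Friedewald; beta quantification if TG >400 mg/dL) from baseline to week 24.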

[1] = ITT Population, Comparison 1: mAb316P + atorva 20 mg arm vs. atorva 40 mg arm
[2] = ITT Population, Comparison 2: mAb316P + atorva 20 mg arm vs. EZE + atorva 20 mg arm
[3] = ITT Population, Comparison 3: mAb316P + atorva 40 mg arm vs. atorva 80 mg arm
[4] = ITT Population, Comparison 4: mAb316P + atorva 40 mg arm vs. rosuva 40 mg arm
[5] = ITT Population, Comparison 5: mAb316P + atorva 40 mg arm vs. EZE + atorva 40 mg arm
[6] = mITT Population, Comparison 1: mAb316P + atorva 20 mg arm vs. atorva 40 mg arm
[7] = mITT Population, Comparison 2: mAb316P + atorva 20 mg arm vs. EZE + atorva 20 mg arm
[8] = mITT Population, Comparison 3: mAb316P + atorva 40 mg arm vs. atorva 80 mg arm
[9] = mITT Population, Comparison 4: mAb316P + atorva 40 mg arm vs. rosuva 40 mg arm
[10] = mITT Population, Comparison 5: mAb316P + atorva 40 mg arm vs. EZE + atorva 40 mg arm

mAb316P: human anti-PCSK9 antibody; heavy chain SEQ ID NO:5, light chain SEQ ID NO:9
Delta, percent change from baseline of Apo B to week 24 [1]: −29.3%
Delta, percent change from baseline of Apo-B to week 12 [1]: −31.5%
Delta, percent change from baseline of HDL-C to week 24 [1]: 2.9%
Delta, percent change from baseline of Lp(a) to week 24 [1]: −3.4%
Delta, percent change from baseline of Non-HDL-C to week 12 [1]: −33.5%
Delta, percent change from baseline of Total-C to week 12 [1]: −22.6%
Delta, percent change from baseline of Total-C to week 24 [1]: −23.1%
Delta, percent change from baseline of calculated LDL-C to week 12 [1]: −39.8%
Delta, percent change from baseline of calculated LDL-C to week 24 [1]: −39.1%
Delta, percent change from baseline of non-HDL-C to week 24 [1]: −30.4%
Odds Ratio, proportion of patients reaching calculated LDL-C < 70 mg/dL at Week 24 [1]: 28.9
Odds Ratio, proportion of very high CV risk patients reaching calculated LDL-C < 70 mg/dL or high CV risk patients reaching calculated LDL-C < 100 mg/dL at Week 24 [1]: 16.3
Delta, percent change from baseline of Apo B to week 24 [2]: −23.6%
Delta, percent change from baseline of Apo-B to week 12 [2]: −25.3%
Delta, percent change from baseline of HDL-C to week 24 [2]: 4.9%
Delta, percent change from baseline of Lp(a) to week 24 [2]: −13.0%
Delta, percent change from baseline of Non-HDL-C to week 12 [2]: −23.4%
Delta, percent change from baseline of Total-C to week 12 [2]: −15.8%
Delta, percent change from baseline of Total-C to week 24 [2]: −15.8%
Delta, percent change from baseline of calculated LDL-C to week 12 [2]: −25.8%
Delta, percent change from baseline of calculated LDL-C to week 24 [2]: −23.6%
Delta, percent change from baseline of non-HDL-C to week 24 [2]: −21.6%
Odds Ratio, proportion of patients reaching calculated LDL-C < 70 mg/dL at Week 24 [2]: 4.7
Odds Ratio, proportion of very high CV risk patients reaching calculated LDL-C < 70 mg/dL or high CV risk patients reaching calculated LDL-C < 100 mg/dL at Week 24 [2]: 3.7
Delta, percent change from baseline of Apo B to week 24 [3]: −38.4%
Delta, percent change from baseline of Apo-B to week 12 [3]: −26.7%
Delta, percent change from baseline of HDL-C to week 24 [3]: 2.9%
Delta, percent change from baseline of Lp(a) to week 24 [3]: −21.1%
Delta, percent change from baseline of Non-HDL-C to week 12 [3]: −29.3%
Delta, percent change from baseline of Total-C to week 12 [3]: −19.1%
Delta, percent change from baseline of Total-C to week 24 [3]: −28.9%
Delta, percent change from baseline of calculated LDL-C to week 12 [3]: −36.0%
Delta, percent change from baseline of calculated LDL-C to week 24 [3]: −49.2%
Delta, percent change from baseline of non-HDL-C to week 24 [3]: −41.1%
Odds Ratio, proportion of patients reaching calculated LDL-C < 70 mg/dL at Week 24 [3]: 116.8
Odds Ratio, proportion of very high CV risk patients reaching calculated LDL-C < 70 mg/dL or high CV risk patients reaching calculated LDL-C < 100 mg/dL at Week 24 [3]: 92.5
Delta, percent change from baseline of Apo B to week 24 [4]: −30.9%
Delta, percent change from baseline of Apo-B to week 12 [4]: −22.2%
Delta, percent change from baseline of HDL-C to week 24 [4]: 2.0%
Delta, percent change from baseline of Lp(a) to week 24 [4]: −25.9%
Delta, percent change from baseline of Non-HDL-C to week 12 [4]: −22.5%
Delta, percent change from baseline of Total-C to week 12 [4]: −15.4%
Delta, percent change from baseline of Total-C to week 24 [4]: −21.9%
Delta, percent change from baseline of calculated LDL-C to week 12 [4]: −27.3%
Delta, percent change from baseline of calculated LDL-C to week 24 [4]: −32.6%
Delta, percent change from baseline of non-HDL-C to week 24 [4]: −30.2%
Odds Ratio, proportion of patients reaching calculated LDL-C < 70 mg/dL at Week 24 [4]: 13.2
Odds Ratio, proportion of very high CV risk patients reaching calculated LDL-C < 70 mg/dL or high CV risk patients reaching calculated LDL-C < 100 mg/dL at Week 24 [4]: 6.1
Delta, percent change from baseline of Apo B to week 24 [5]: −27.6%
Delta, percent change from baseline of Apo-B to week 12 [5]: −15.9%
Delta, percent change from baseline of HDL-C to week 24 [5]: 5.6%
Delta, percent change from baseline of Lp(a) to week 24 [5]: −31.0%
Delta, percent change from baseline of Non-HDL-C to week 12 [5]: −14.8%
Delta, percent change from baseline of Total-C to week 12 [5]: −9.8%
Delta, percent change from baseline of Total-C to week 24 [5]: −18.4%
Delta, percent change from baseline of calculated LDL-C to week 12 [5]: −20.9%
Delta, percent change from baseline of calculated LDL-C to week 24 [5]: −31.4%
Delta, percent change from baseline of non-HDL-C to week 24 [5]: −26.6%
Odds Ratio, proportion of patients reaching calculated LDL-C < 70 mg/dL at Week 24 [5]: 9.9
Odds Ratio, proportion of very high CV risk patients reaching calculated LDL-C < 70 mg/dL or high CV risk patients reaching calculated LDL-C < 100 mg/dL at Week 24 [5]: 7.9
patients achieving the more stringent LDL-C goal of <70 mg/dL (Week 24, calculated LDL-C, across atorvastatin 20 mg and 40 mg regimens): 77-79%
reduced LDL-C levels by (atorvastatin 20 mg regimen, add-on ezetimibe or doubling of atorvastatin dose): 44.1%
reduced LDL-C levels by (atorvastatin 40 mg regimen, add-on ezetimibe, doubling of atorvastatin dose or switch to rosuvastatin 40 mg): 54.0%
Delta, percent change from baseline of Apo B to week 24 [6]: −32.6%
Delta, percent change from baseline of calculated LDL-C to week 12 [6]: −44.5%
Delta, percent change from baseline of calculated LDL-C to week 24 [6]: −42.5%
Delta, percent change from baseline of non-HDL-C to week 24 [6]: −33.0%
Odds Ratio, proportion of patients reaching calculated LDL-C < 70 mg/dL at Week 24 [6]: 28.8
Odds Ratio, proportion of very high CV risk patients reaching calculated LDL-C < 70 mg/dL or high CV risk patients reaching calculated LDL-C < 100 mg/dL at Week 24 [6]: 24.6
Delta, percent change from baseline of Apo B to week 24 [7]: −25.1%
Delta, percent change from baseline of calculated LDL-C to week 12 [7]: −26.6%
Delta, percent change from baseline of calculated LDL-C to week 24 [7]: −24.9%
Delta, percent change from baseline of non-HDL-C to week 24 [7]: −22.4%
Odds Ratio, proportion of patients reaching calculated LDL-C < 70 mg/dL at Week 24 [7]: 4.8
Odds Ratio, proportion of very high CV risk patients reaching calculated LDL-C < 70 mg/dL or high CV risk patients reaching calculated LDL-C < 100 mg/dL at Week 24 [7]: 5.0
Delta, percent change from baseline of Apo B to week 24 [8]: −38.3%
Delta, percent change from baseline of calculated LDL-C to week 12 [8]: −36.3%
Delta, percent change from baseline of calculated LDL-C to week 24 [8]: −52.8%
Delta, percent change from baseline of non-HDL-C to week 24 [8]: −43.6%
Odds Ratio, proportion of patients reaching calculated LDL-C < 70 mg/dL at Week 24 [8]: 162.1
Odds Ratio, proportion of very high CV risk patients reaching calculated LDL-C < 70 mg/dL or high CV risk patients reaching calculated LDL-C < 100 mg/dL at Week 24 [8]: 130.8
Delta, percent change from baseline of Apo B to week 24 [9]: −29.8%
Delta, percent change from baseline of calculated LDL-C to week 12 [9]: −27.7%
Delta, percent change from baseline of calculated LDL-C to week 24 [9]: −35.0%
Delta, percent change from baseline of non-HDL-C to week 24 [9]: −32.1%
Odds Ratio, proportion of patients reaching calculated LDL-C < 70 mg/dL at Week 24 [9]: 19.8
Odds Ratio, proportion of very high CV risk patients reaching calculated LDL-C < 70 mg/dL or high CV risk patients reaching calculated LDL-C < 100 mg/dL at Week 24 [9]: 8.5
Delta, percent change from baseline of Apo B to week 24 [10]: −26.4%
Delta, percent change from baseline of calculated LDL-C to week 12 [10]: −20.2%
Delta, percent change from baseline of calculated LDL-C to week 24 [10]: −33.4%
Delta, percent change from baseline of non-HDL-C to week 24 [10]: −27.3%
Odds Ratio, proportion of patients reaching calculated LDL-C < 70 mg/dL at Week 24 [10]: 13.9
Odds Ratio, proportion of very high CV risk patients reaching calculated LDL-C < 70 mg/dL or high CV risk patients reaching calculated LDL-C < 100 mg/dL at Week 24 [10]: 10.8
